Assay results as given in paper PMC5581131, “The novel sphingosine-1-phosphate receptors antagonist AD2900 affects lymphocyte activation and inhibits T-cell entry into the lymph nodes” (Oncotarget, 2017).

Columns and labels:
[1] = design: method as in unpublished data; details: previous studies; ref unpublished data; cited from earlier work
human PBMCs = assay: Human allogeneic mixed lymphocyte reaction (MLR), [3H] thymidine incorporation, 1-day pretreatment; format: cell-based
Method: To select an analogue with potential anti-inflammatory activity, the effects of six of our unique synthetic sphingolipid analogues (all chemical structures can be found in Supplementary Figure 1A) on human immune cell activation were examined. Human PBMCs were cultured with the compounds for 1 day at different concentrations. The cells were then activated by PBMCs from a different donor in a mixed lymphocyte reaction (MLR) experiment. […] The amine derivative, AD2900, is substituted with amino diols. Structurally, AD2900 has a hydroxymethyl group on carbon 2 and no phenyl substitution. These characteristics cause AD2900 to be more hydrophilic than other analogues. In addition, previous studies have shown that AD2900 has a higher lethal dose 50% (LD50), which is above 100 mg/kg, and it is stable at room temperature for at least 2 years (unpublished data). Based on these characteristics, AD2900 was selected for further investigation. […]
Human PBLs were collected from human whole blood collected from healthy donors. […] For the thymidine incorporation assay, after 4 days of co-culture, cells were pulsed with ^3H-thymidine at 1 μCi (0.037MBq) per well (PerkinElmer, MA, USA) for 16 additional hours and then harvested onto glass-fiber filters. ^3H-thymidine incorporation was measured using Top Count. […]

S1P4 = target: T1, S1P4 (Homo sapiens, UniProt O95977); assay: S1P4 agonist test, Tango S1P4 (EDG6)-bla U-2 OS cells; format: cell-based; details: S1P4 TANGO U-2 OS cell line
T1 construct: Tango fusion partner (protease site + GAL4-VP16 transcription factor); expressed in transfected cells; host or cells: Tango S1P4 (EDG6)-bla U-2 OS cells
T1 sequence (O95977 1-384): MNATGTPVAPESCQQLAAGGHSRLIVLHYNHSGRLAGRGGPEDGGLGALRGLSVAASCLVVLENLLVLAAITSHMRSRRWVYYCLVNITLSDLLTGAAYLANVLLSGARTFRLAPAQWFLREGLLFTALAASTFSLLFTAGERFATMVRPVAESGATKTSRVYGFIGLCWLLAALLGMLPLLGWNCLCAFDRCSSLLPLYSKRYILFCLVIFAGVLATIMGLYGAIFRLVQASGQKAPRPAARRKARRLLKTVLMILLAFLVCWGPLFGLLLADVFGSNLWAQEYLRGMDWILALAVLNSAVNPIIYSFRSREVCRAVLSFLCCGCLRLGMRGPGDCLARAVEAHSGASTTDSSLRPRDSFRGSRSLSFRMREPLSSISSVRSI
Method: (§1) Since AD2900 is a sphingolipid analogue with properties that resemble those of S1P, we intended to examine its ability to interact with the S1P receptors. To delineate whether AD2900 can function as an agonistic or antagonistic compound to any of the S1P receptors, we used a high-throughput screening cell-based assay, employing cell lines stably transfected with human S1P receptors 1, 2, 3, 4, or 5 [37]. In this experiment, a compound with an IC50 or EC50 value ≤10 μM for a certain S1P receptor is considered active as an antagonist or an agonist, respectively. The results illustrate that AD2900 acts as an antagonist to all S1P receptors (Table 1, Supplementary Figure 3). […] No agonist activation was evident.
(§2) The S1P1 agonist test and S1P2, S1P3, S1P4, and S1P5 agonist and antagonist tests were conducted as previously described using S1P1 CRE-bla CHO cells, S1P2 CRE-bla CHO cells, S1P3 NFAT-bla CHO cells, Tango™ S1P4 (EDG6)-bla U-2 OS cells, and Tango™ S1P5 ([…])-bla U-2 OS cells. The S1P1 antagonist assay was carried out according to the manufacturer’s instructions using a Tango™ S1P1 (EDG1)-bla U-2 OS Cell-Based Assay (Invitrogen, NY, USA).

S1P1 = S1P1 (Homo sapiens, UniProt P21453); assay: S1P1 agonist test, S1P1 CRE-bla CHO cells; format: cell-based; details: S1P1 CRE-BLA CHO cell line
Method: as §1, §2

S1P2 = target: T2, S1P2 (Homo sapiens, UniProt O95136); assay: S1P2 agonist test, S1P2 CRE-bla CHO cells; format: cell-based; details: S1P2 CRE-BLA CHO cell line
T2 construct: expressed in transfected cells; host or cells: S1P2 CRE-bla CHO cells
Method: as §1, §2

S1P1, sequence (P21453 whole entry): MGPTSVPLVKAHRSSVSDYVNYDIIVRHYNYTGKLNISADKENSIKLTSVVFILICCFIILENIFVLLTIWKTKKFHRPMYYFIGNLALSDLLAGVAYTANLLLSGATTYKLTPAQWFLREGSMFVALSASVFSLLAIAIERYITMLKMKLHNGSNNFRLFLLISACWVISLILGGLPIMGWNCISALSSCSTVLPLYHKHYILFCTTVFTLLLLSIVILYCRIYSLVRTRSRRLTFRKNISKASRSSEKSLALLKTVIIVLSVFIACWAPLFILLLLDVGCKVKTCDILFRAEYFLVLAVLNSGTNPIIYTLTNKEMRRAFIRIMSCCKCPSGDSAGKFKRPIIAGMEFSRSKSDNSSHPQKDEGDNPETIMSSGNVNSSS
T2 sequence (O95136 whole entry): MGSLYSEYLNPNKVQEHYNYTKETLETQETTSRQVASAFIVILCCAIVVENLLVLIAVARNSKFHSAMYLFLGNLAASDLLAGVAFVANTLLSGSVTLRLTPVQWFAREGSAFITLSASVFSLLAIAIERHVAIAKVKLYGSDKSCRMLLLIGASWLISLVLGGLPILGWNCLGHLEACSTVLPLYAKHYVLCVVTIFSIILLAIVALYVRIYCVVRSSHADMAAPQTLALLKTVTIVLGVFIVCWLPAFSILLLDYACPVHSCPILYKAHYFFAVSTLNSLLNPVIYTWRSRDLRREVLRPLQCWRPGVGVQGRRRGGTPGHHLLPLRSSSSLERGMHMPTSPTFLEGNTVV

Structure (SMILES): CCCCCCCCCCCCCCCCNC(CO)(CO)CO [AD2900]
- stable at room temperature [1]: at least 2 years
- inhibitory effect on lymphocyte activation compared to FTY720 and SEW2817 (human PBMCs; 1-day pretreatment prior to MLR, concentrations of 6–20 μM): compromised effect in comparison to FTY720 but a higher inhibitory effect than that with SEW2817
- inhibition of PBMC proliferation (human PBMCs; 1-day pretreatment, MLR, mean of up to, at the highest concentration): 76% ± 4%
- EC50 (S1P4): > 50 µM
- EC50 (S1P1): > 50 µM
- EC50 (S1P2): > 50 µM
